Data published in ChEMBL document CHEMBL3217407, “Adamantane substituted aminocyclitols as pharmacological chaperones for Gaucher disease” (Medchemcomm, 2013).
Activity calls are given as the source filed them. The rule behind the calls is not given here.

What was measured:
[1] = molecular target: T1, Beta-galactosidase (Bos taurus) (UniProt Q58D55); test: Inhibition of bovine liver beta-galactosidase at 200 uM
T1 sequence (whole entry): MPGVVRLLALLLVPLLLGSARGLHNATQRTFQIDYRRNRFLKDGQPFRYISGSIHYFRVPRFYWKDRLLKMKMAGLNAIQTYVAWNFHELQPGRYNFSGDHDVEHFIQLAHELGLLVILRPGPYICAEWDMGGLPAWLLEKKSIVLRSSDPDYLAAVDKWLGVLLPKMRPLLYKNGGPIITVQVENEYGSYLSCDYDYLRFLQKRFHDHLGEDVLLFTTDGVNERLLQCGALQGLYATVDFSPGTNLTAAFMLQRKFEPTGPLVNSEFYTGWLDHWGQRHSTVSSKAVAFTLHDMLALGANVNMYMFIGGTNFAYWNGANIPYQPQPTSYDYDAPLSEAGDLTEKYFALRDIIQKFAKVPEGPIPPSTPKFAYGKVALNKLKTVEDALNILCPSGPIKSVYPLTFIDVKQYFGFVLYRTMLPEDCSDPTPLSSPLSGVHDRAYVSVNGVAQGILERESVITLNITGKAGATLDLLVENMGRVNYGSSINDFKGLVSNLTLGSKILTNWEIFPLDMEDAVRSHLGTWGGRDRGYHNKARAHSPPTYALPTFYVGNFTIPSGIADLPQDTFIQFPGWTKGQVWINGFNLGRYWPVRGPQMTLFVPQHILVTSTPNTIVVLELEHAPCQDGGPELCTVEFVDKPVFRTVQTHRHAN

[2] = Cytotoxicity against human fibroblasts up to 300 uM after 24 hrs by MTT assay; type: cell-based; details: fibroblast
[3] = molecular target: Alpha-galactosidase (Coffea arabica) (UniProt Q42656); test: Inhibition of coffee beans alpha-galactosidase at 200 uM
[4] = molecular target: T2, Lysosomal acid glucosylceramidase (Homo sapiens) (UniProt P04062); test: Ratio of IC50 for human recombinant imiglucerase at pH 5.2 to IC50 for human recombinant imiglucerase at pH 7
T2 sequence (whole entry): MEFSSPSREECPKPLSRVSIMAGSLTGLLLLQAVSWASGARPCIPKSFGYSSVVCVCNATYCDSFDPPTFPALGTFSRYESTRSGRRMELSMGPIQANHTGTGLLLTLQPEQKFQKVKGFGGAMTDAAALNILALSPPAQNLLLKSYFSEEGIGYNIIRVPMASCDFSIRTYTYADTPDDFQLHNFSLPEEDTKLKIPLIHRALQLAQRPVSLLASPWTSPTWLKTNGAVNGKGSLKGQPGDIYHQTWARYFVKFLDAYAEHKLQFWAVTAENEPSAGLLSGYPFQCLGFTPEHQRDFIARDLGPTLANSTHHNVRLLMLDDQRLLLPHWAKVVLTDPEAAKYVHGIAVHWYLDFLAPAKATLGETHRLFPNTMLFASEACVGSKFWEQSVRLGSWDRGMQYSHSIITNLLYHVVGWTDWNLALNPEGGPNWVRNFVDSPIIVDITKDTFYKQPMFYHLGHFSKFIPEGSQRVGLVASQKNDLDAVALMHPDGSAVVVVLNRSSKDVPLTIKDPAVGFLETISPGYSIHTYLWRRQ

[5] = molecular target: T3, Lysosomal acid glucosylceramidase (Homo sapiens, UniProt P04062); test: Competitive inhibition of human recombinant imiglucerase using 4-methylumbelliferyl-beta-D-glucopyranoside as substrate preincubated for 30 mins at pH 5.2 before substrate addition measured after 10 mins by Lineweaver-Burk or Dixon plot analysis
T3 sequence (P04062 whole entry): T2 sequence (whole entry)

[6] = molecular target: T3, Lysosomal acid glucosylceramidase; test: Inhibition of human recombinant imiglucerase using 4-methylumbelliferyl-beta-D-glucopyranoside as substrate preincubated for 30 mins at pH 5.2 before substrate addition measured after 10 mins
[7] = molecular target: T2, Lysosomal acid glucosylceramidase (Homo sapiens); test: Inhibition of imiglucerase in human fibroblasts using 4-methylumbelliferyl-beta-D-glucopyranoside as substrate at 200 uM after 24 hrs
[8] = molecular target: T3, Lysosomal acid glucosylceramidase; test: Competitive inhibition of human recombinant imiglucerase using 4-methylumbelliferyl-beta-D-glucopyranoside as substrate preincubated for 30 mins at pH 7 before substrate addition measured after 10 mins by Lineweaver-Burk or Dixon plot analysis
[9] = molecular target: T3, Lysosomal acid glucosylceramidase; test: Inhibition of human recombinant imiglucerase using 4-methylumbelliferyl-beta-D-glucopyranoside as substrate preincubated for 30 mins at pH 7 before substrate addition measured after 10 mins
[10] = system: Saccharomyces cerevisiae; test: Inhibition of yeast alpha-glucosidase at 200 uM
[11] = molecular target: T2, Lysosomal acid glucosylceramidase (Homo sapiens); details: 50 uM
Description: Inhibition of imiglucerase in human fibroblasts using 4-methylumbelliferyl-beta-D-glucopyranoside as substrate at 50 uM after 24 hrs

Sequence of Alpha-galactosidase (Coffea arabica) (Q42656 16-378 limits assumed): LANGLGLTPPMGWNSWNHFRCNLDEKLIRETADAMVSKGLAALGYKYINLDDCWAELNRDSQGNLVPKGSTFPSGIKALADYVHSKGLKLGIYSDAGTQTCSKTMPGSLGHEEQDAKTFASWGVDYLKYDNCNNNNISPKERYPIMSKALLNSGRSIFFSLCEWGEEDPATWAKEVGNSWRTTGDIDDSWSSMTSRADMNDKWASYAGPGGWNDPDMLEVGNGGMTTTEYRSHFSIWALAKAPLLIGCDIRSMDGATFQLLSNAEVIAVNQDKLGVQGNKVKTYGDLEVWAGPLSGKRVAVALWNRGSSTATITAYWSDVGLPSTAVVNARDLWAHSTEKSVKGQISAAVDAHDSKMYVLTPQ

Row | SMILES | inhibition [1] | Activity [2] | inhibition [3] | Ratio IC50 [4] | Ki [5] [µM] | IC50 [6] [µM] | inhibition [7] [%] | Ki [8] [µM] | IC50 [9] [µM] | inhibition [10] | inhibition [11] [%]
1 | O=C(CCCN[C@@H]1[C@H](O)[C@H](O)[C@@H](O)[C@H](O)[C@H]1O)NC12CC3CC(CC(C3)C1)C2 | 24% | Non-toxic | inactive | 12 | 2.9 | 5.4 | 1 | 0.25 | 0.37 | inactive | –
2 | O=C(CCCN[C@H]1[C@H](O)[C@@H](O)[C@H](O)[C@@H](O)[C@@H]1O)NC12CC3CC(CC(C3)C1)C2 | inactive | Non-toxic | inactive | 4 | 183 | 257 | 0 | 45 | 58 | inactive | –
3 | CCCCCCCCCN[C@H]1[C@H](O)[C@@H](O)[C@H](O)[C@@H](O)[C@@H]1O | – | – | – | – | – | – | – | – | – | – | 29
4 | CCCCCCCCCN[C@@H]1[C@H](O)[C@H](O)[C@@H](O)[C@H](O)[C@H]1O | – | – | – | – | – | – | – | – | – | – | 95
